Assay results reported in patent US8182983B2, “Method for determining immune system affecting compounds” (Canimguide Therapeutics AB, priority 2002, dated 2012).

Legend:
Type in all cases: cell-based, human
[1] = system: PBMC from healthy volunteers; test: Inhibition of IL-1Ra production by PBMC with Tosyl
Experimental: Monokines were assessed by ELISA using the DuoSet ELISA development system for human IL-6, TNF-α or IL-1β (R&D Systems Europe, Ltd. UK) following the manufacturer's recommended procedures. Lower limit of detection was […] for IL-6, […] for TNF-α and […] for IL-1β. IL-10 was detected with a kit from Diaclone Research, FR. The lower limit of detection was […]. Human IL-1Ra was detected with a quantitative sandwich ELISA using a monoclonal mouse anti-human IL-1Ra as capture antibody and a biotinylated goat anti-human IL-1Ra as developing antibody (both from R&D Systems). […] Following incubation for 1 hr at room temperature, plates were washed and the amount of bound IL-1Ra was measured by hydrolysis of paranitrophenyl phosphate (Sigma). Optical density was read at dual wavelengths, 405 nm and 570 nm, respectively, in a Multiscan EX microplate reader (Labsystems). […]
Inhibition of IL-1Ra production by PBMC with Tosyl PBMC (2×10^6/ml) from healthy volunteers were pre-incubated with various concentrations of Na-p-Tosyl-L-lysine chloromethyl ketone (Tosyl, Sigma) diluted in RPMI1640/2% HSA for 30 minutes at 37° C. after which the cell suspensions were washed three times in RPMI/2% HSA. […] Viability of cultured PBMCs were also assessed after 24 hrs by Trypan blue exclusion and found to be 100%. […]

PBMC from RCC patients = test: TNF-α in PHA stimulated PBMC cultures with chlorambucil; settings: chlorambucil 1 μg/ml, 72 hours, responders vs non-responders to interleukin-2
Experimental: PHA stimulated proliferation of PBMC with and without chlorambucil Venous blood was drawn at the indicated time points from RCC patients undergoing IL-2 (Proleukin, Chiron, NL) therapy. Mononuclear cells were isolated by Ficoll-Isopaque (Pharmacia, SE) density gradient centrifugation. 5×10^4 PBMC in a final volume of 200 μl were seeded into round-bottomed microtiter plates (Corning Inc. NY, US) in culture medium consisting of RPMI 1640 supplemented with 100 IU/ml Penicillin, 100 μg/ml Streptomycin (Flow laboratories) and 10% heat-inactivated, autologous fresh serum. […]
PHA-stimulated cultures with or without chlorambucil (1 µg/ml) were set up in parallel as described above for mitogen-stimulated cultures. […] The amount of TNF-α in the SNs was evaluated with an ELISA kit from Immunotech S.A., FR, according to the manufacturer's instructions. […]
Comparisons between the proliferative response to PHA in different groups or at different test occasions were done on logarithmated mean values of dpm of triplicates using unpaired t-test. For the determination of the effect of addition of CHL on the proliferative response of PHA-stimulated PBMCs, a modulation index (MI) was calculated according to the following formula: MI=log(dpm PHA+drug/dpm PHA).

normal PBMCs [2] = test: Fragmentation of IgG and serum albumin using MMPs, IL-6 inducing activity of supernatants; settings: supernatants tested on normal PBMCs; for release of fragments inducing or modulating IL-6 production from albumin: serum albumin incubated with MMP; for release of fragments inducing or modulating IL-6 production from IgG: IgG incubated with MMP
Experimental: MMP-1, -2, -13 (R&D Systems) and MMP-3 and -7 (Chemicon, UK) were activated according to instructions of the manufacturer. […] The mixtures were incubated for 5-20 hours at 37° C. Parallel incubations of MMP or the substrates alone, in respective buffer, were set up as controls. The mixtures were buffer exchanged to RPMI as described previously and filtered through a 0.45 μm Millex-HV syringe filter (Millipore, MA, US). Storing of mixtures, when needed, was performed at −70° C. until analysing by gel-electrophoresis and testing for monokine inducing activity in fresh, normal PBMC as described above.

PBMC from healthy donors = test: IL-2 induced proliferation of PBMC in the presence of collagen/collagen fragments; settings: collagen 26 ug/ml, PBMCs from healthy donors, autologous serum
Experimental: 100 μl of RPMI1640 supplemented with 200 IU/ml penicillin, […] streptomycin, 4 mM L-glutamine (all from Sigma Chemical Co. MO, US) and 20% heat-inactivated human serum (autologous or from cancer patients) were added to uncoated, HSA or HSA/IgG coated tissue culture microtiter plates. PBMC, isolated from healthy individuals or patients with metastatic renal cell carcinoma, were diluted in RPMI/2%1-ISA at a concentration of 5×10^5/ml and 100 μl were added to the microtiter wells. Interleukin-2 (IL-2, Proleukin, Chiron, NL), at a final concentration of 120 IU/well, was added to some wells. Cells were cultured for 7 days in a humidified, 5% CO2-atmosphere at 37° C.
Proliferation was assayed by incorporation of 1.6 μCi/well of [3H]-thymidine (Amersham Int., UK) during the last 18 hrs. Mean values of dpm (disintegrations per minute) of triplicates were used for the calculations.
Purified collagen from human skin (Sigma) at a concentration of 100 µg/ml was incubated in 100 mM Tris-HCl, pH 7.6, containing 0.15 M NaCl, 10 mM CaCl2 and 0.05% Brij35 over night at 37° C. The buffer was then exchanged to RPMI1640 by gel filtration through a Sephadex-G25 (PD-10) column (Amersham Biosciences) and filtered through a 0.45 μm Millex-HV syringe filter (Millipore) and frozen at −70° C. until use. […]

normal PBMCs [3] = test: Homogenised, washed tumour tissue incubated with MMP-2, IL-6 inducing activity; settings: MMP-2 5 ng/ml; 20 hours at 37° C.
Experimental: The collection, washing and homogenisation of tumour cryo sections (3×300 μm) were carried out as described above. The pelleted tumour tissue was suspended in 0.5 ml cold RPMI/PEST. MMP-2 (R&D Systems, UK), activated according to instructions from the manufacturer, was added at a final concentration of 5 ng/ml. The tumour tissue suspension was incubated with MMP-2 for 20 h at 37° C. and the supernatant collected after centrifugation. Parallel incubation of tumour tissue with no addition of MMP-2 was set up as a control. The mixtures were buffer exchanged to RPMI by gel filtration through a Sephadex-G25 (PD-10) column (Amersham Biosciences, SE) and filtered through a 0.45 μm Millex-HV syringe filter (Millipore, MA, US). Finally, the mixtures were analysed by gel-electrophoresis and tested for monokine inducing activity in fresh normal PBMC as described above.

Row | Molecule | release of fragments inducing or modulating IL-6 production from albumin (normal PBMCs [2]) | release of fragments inducing or modulating IL-6 production from IgG (normal PBMCs [2]) | further results
1 | Cc1ccc(S(=O)(=O)NC(CCCCN)C(=O)CCl)cc1 [Tosyl, Na-p-Tosyl-L-lysine chloromethyl ketone] |  |  | Viability of cultured PBMCs by Trypan blue exclusion ([1]; after 24 hrs, PBMC pre-incubated with Tosyl): 100%; effect on production of IL1Ra ([1]; non-toxic concentrations, PBMC from healthy individuals (n=9), plates pre-coated with HSA or HSA/IgG): significantly reduced production
2 | O=C(O)CCCc1ccc(N(CCCl)CCCl)cc1 [chlorambucil, Chlorambucil] |  |  | TNF-α production in PHA stimulated cultures with chlorambucil (PBMC from RCC patients): in non-responders TNF-α production is more stimulated than in responders
3 | MMP-1: matrix metalloproteinase (R&D Systems), activated | released active fragments |  | 
4 | MMP-3: matrix metalloproteinase (Chemicon), activated | released active fragments | released active fragments | 
5 | MMP-7: matrix metalloproteinase (Chemicon), activated |  | released active fragments | 
6 | collagen |  |  | effect on IL-2 induced proliferation (PBMC from healthy donors): strongly inhibitory effect; effect on IL-2 induced proliferation (PBMC from healthy donors; listed as collagen/collagen fragments): strong inhibitory effect was demonstrated in two out of three experiments
7 | MMP-2: matrix metalloproteinase (R&D Systems), activated (protein, UniProt P08253 110-660, looked up, activated) 72 kDa type IV collagenase: YNFFPRKPKWDKNQITYRIIGYTPDLDPETVDDAFARAFQVWSDVTPLRFSRIHDGEADIMINFGRWEHGDGYPFDGKDGLLAHAFAPGTGVGGDSHFDDDELWTLGEGQVVRVKYGNADGEYCKFPFLFNGKEYNSCTDTGRSDGFLWCSTTYNFEKDGKYGFCPHEALFTMGGNAEGQPCKFPFRFQGTSYDSCTTEGRTDGYRWCGTTEDYDRDKKYGFCPETAMSTVGGNSEGAPCVFPFTFLGNKYESCTSAGRSDGKMWCATTANYDDDRKWGFCPDQGYSLFLVAAHEFGHAMGLEHSQDPGALMAPIYTYTKNFRLSQDDIKGIQELYGASPDIDLGTGPTPTLGPVTPEICKQDIVFDGIAQIRGEIFFFKDRFIWRTVTPRDKPMGPLLVATFWPELPEKIDAVYEAPQEEKAVFFAGNEYWIYSASTLERGYPKPLTSLGLPPDVQRVDAAFNWSKNKKTYIFAGDKFWRYNEVKKKMDPGFPKLIADAWNAIPDNLDAVVDLQGGGHSYFFKGAYYLKLENQSLKSVKFGSIKSDWLGC | released active fragments | released active fragments | release of IL-6 inducing activity from washed tumour tissue (normal PBMCs [3]): modulated the release of IL-6 inducing activity
